Article PMC5912973 (ChemMedChem, 2018)
Where two headings read alike, the source gives them in different places.

Assays:
HIVLAI = test: Antiviral activity in MT-2 human T-lymphoid cells exposed to HIVLAI; assay type: cell-based, HIV-1; conditions: MT-2/HIVLAI
HIVDRV^RP20 = test: microbe, parasite or virus in culture; assay type: cell-based, HIV-1; conditions: for fold change of IC50 relative to HIV-1NL4-3: HIVDRV^RP20 vs wild type
HIVAPV-5 μM = test: microbe, parasite or virus in culture; assay type: cell-based, HIV-1
[1] = brain concentration 32.6 nM at 360 min; ref [23]; cited from earlier work
HIVLPV-5 μM = test: microbe, parasite or virus in culture; assay type: cell-based, HIV-1
HIVDRV^RP30 = test: microbe, parasite or virus in culture; assay type: cell-based, HIV-1; conditions: for fold change of IC50 relative to HIV-1NL4-3: HIVDRV^RP30 vs wild type
HIVNFV-5 μM = test: microbe, parasite or virus in culture; assay type: cell-based, HIV-1
HIVIDV-5 μM = test: microbe, parasite or virus in culture; assay type: cell-based, HIV-1
HIV-1 protease = HIV-1 protease (Human immunodeficiency virus type 1 group M subtype B, UniProt P04585); test: HIV-1 protease inhibitory activity, assay protocol of Toth and Marshall; assay type: biochemical; conditions: as printed in text or footnote
HIVATV-5 μM = test: microbe, parasite or virus in culture; assay type: cell-based, HIV-1
[2] = biological target: dimerization of HIV-1 protease subunits (Human immunodeficiency virus type 1 group M subtype B, UniProt P12497); test: FRET-based HIV-1 expression assay of protease dimerization in COS-7 cells; assay type: cell-based
HIVTPV-15 μM = test: microbe, parasite or virus in culture; assay type: cell-based, HIV-1
wild-type HIV-1NL4-3 = test: Antiviral p24 assay in MT-4 cells, wild-type HIV-1NL4-3; assay type: cell-based
HIVDRV^RP51 = test: microbe, parasite or virus in culture; assay type: cell-based, HIV-1; conditions: for fold change of IC50 relative to HIV-1NL4-3: HIVDRV^RP51 vs wild type
HIVSQV-5 μM = test: microbe, parasite or virus in culture; assay type: cell-based, HIV-1
[3] = read-out: IC50 ± SD, MT-4 cells, HIVDRV^RP20, p24 assay
[4] = read-out: IC50 ± SD, MT-4 cells, HIVDRV^RP30, p24 assay
[5] = read-out: Mean IC50 ± SD, MT-4 cells, HIVATV-5 μM, p24 assay
[6] = read-out: IC50 ± SD, MT-4 cells, HIVNL4-3 WT, p24 assay
[7] = read-out: IC50 ± SD, MT-4 cells, HIVDRV^RP51, p24 assay
[8] = Human immunodeficiency virus 1, MT4, read-out: IC50 ± SD
[9] = Human immunodeficiency virus 1, MT4, read-out: Mean IC50 ± SD

In the case of CC(C)CN(C[C@@H](O)[C@H](Cc1cc(F)cc(F)c1)NC(=O)O[C@H]1C2CO[C@H]3OC[C@@H]1C3C2)S(=O)(=O)c1ccc2nc(NC3CC3)sc2c1 (stereo partly drawn) [Inhibitor 5, (3S,7 aS,8S)-Hexahydro-4H-3,5-methanofuro[2,3-b]pyran-8-yl((2S,3R)-4-((2-(cyclopropylamino)-N-isobutylbenzo[d]thiazole)-6-sulfonamido)-1-(3,5-difluorophenyl)-3-hydroxybutan-2-yl)carbamate], the “fold potency enhancement of antiviral IC50 over DRV” value (HIVLAI; vs DRV) is reported as “more than 150 fold”, the “fold improvement of antiviral IC50 over compound 4” value (HIVLAI; vs compound 4) is reported as 100 fold and the “fold more potent than inhibitor 3 (antiviral)” value (HIVLAI; vs inhibitor 3) is reported as “over 15 fold”. The “fold change of IC50 relative to HIV-1NL4-3” value (HIVDRV^RP20) was 0.1 fold, the IC50 (HIVDRV^RP20; [3]) was 0.0016 ± 0.002 nM and the “fold-change of IC50 vs HIVNL4-3 WT” value (HIVAPV-5 μM; HIVAPV-5 μM) was 0.0006 fold. The “brain drug level relative to its IC50 value” [1] was about 1880 fold, the “fold-change of IC50 vs HIVNL4-3 WT” value (HIVLPV-5 μM; HIVLPV-5 μM) was 0.0002 fold and the “fold change of IC50 relative to HIV-1NL4-3” value (HIVDRV^RP30) was 1 fold. For the same compound, the IC50 (HIVDRV^RP30; [4]) was 0.015 ± 0.015 nM, the “fold-change of IC50 vs HIVNL4-3 WT” value (HIVNFV-5 μM; HIVNFV-5 μM) was 0.04 fold and the “fold-change of IC50 vs HIVNL4-3 WT” value (HIVIDV-5 μM; HIVIDV-5 μM) was 0.02 fold. For the same compound, the Ki (HIV-1 protease) was 0.014 nM, the “fold-change of IC50 vs HIVNL4-3 WT” value (HIVATV-5 μM; HIVATV-5 μM) was 1.3 fold and the IC50 (HIVATV-5 μM; [5]) was 0.02 ± 0.01 nM. For the same compound, the “concentration at which dimerization of protease subunits is blocked” value [2] was 0.1 nM, the “fold-change of IC50 vs HIVNL4-3 WT” value (HIVTPV-15 μM; HIVTPV-15 μM) was 0.02 fold and the IC50 (wild-type HIV-1NL4-3; [6]) was 0.016 ± 0.017 nM. For the same compound, the “fold change of IC50 relative to HIV-1NL4-3” value (HIVDRV^RP51) was 175 fold, the IC50 (HIVDRV^RP51; [7]) was 2.8 ± 0.2 nM and the “fold-change of IC50 vs HIVNL4-3 WT” value (HIVSQV-5 μM; HIVSQV-5 μM) was 0.01 fold.

In the case of COC(=O)N[C@H](C(=O)N[C@@H](Cc1ccccc1)[C@@H](O)CN(Cc1ccc(-c2ccccn2)cc1)NC(=O)[C@@H](NC(=O)OC)C(C)(C)C)C(C)(C)C [ATV], the “fold change of IC50 relative to HIV-1NL4-3” value (HIVDRV^RP20) is reported as over 192 fold, the IC50 (HIVDRV^RP20; [3]) is reported as over 1000 nM and the “fold-change of IC50 vs HIVNL4-3 WT” value (HIVAPV-5 μM; HIVAPV-5 μM) is reported as 0.5 fold. For the same compound, the IC50 (HIVAPV-5 μM; read-out: Mean IC50 ± SD, MT-4 cells, HIVAPV-5 μM, p24 assay) was 2.4 ± 0.7 nM, the “fold-change of IC50 vs HIVNL4-3 WT” value (HIVLPV-5 μM; HIVLPV-5 μM) was 7 fold and the IC50 (HIVLPV-5 μM; read-out: Mean IC50 ± SD, MT-4 cells, HIVLPV-5 μM, p24 assay) was 36 ± 9 nM. For the same compound, the “fold change of IC50 relative to HIV-1NL4-3” value (HIVDRV^RP30) was over 192 fold, the IC50 (HIVDRV^RP30; [4]) was over 1000 nM and the “fold-change of IC50 vs HIVNL4-3 WT” value (HIVNFV-5 μM; HIVNFV-5 μM) was 3.7 fold. For the same compound, the IC50 (HIVNFV-5 μM; read-out: Mean IC50 ± SD, MT-4 cells, HIVNFV-5 μM, p24 assay) was 19 ± 1 nM, the “fold-change of IC50 vs HIVNL4-3 WT” value (HIVIDV-5 μM; HIVIDV-5 μM) was 11 fold and the IC50 (HIVIDV-5 μM; read-out: Mean IC50 ± SD, MT-4 cells, HIVIDV-5 μM, p24 assay) was 59 ± 13 nM. The “fold-change of IC50 vs HIVNL4-3 WT” value (HIVATV-5 μM; HIVATV-5 μM) was over 192 fold, the IC50 (HIVATV-5 μM; [5]) was over 1000 nM and the “fold-change of IC50 vs HIVNL4-3 WT” value (HIVTPV-15 μM; HIVTPV-15 μM) was over 192 fold. The IC50 (HIVTPV-15 μM; read-out: Mean IC50 ± SD, MT-4 cells, HIVTPV-15 μM, p24 assay) was over 1000 nM, the IC50 (wild-type HIV-1NL4-3; [6]) was 5.2 ± 0.3 nM and the “fold change of IC50 relative to HIV-1NL4-3” value (HIVDRV^RP51) was over 192 fold. The IC50 (HIVDRV^RP51; [7]) was over 1000 nM, the “fold-change of IC50 vs HIVNL4-3 WT” value (HIVSQV-5 μM; HIVSQV-5 μM) was 105 fold and the IC50 (HIVSQV-5 μM; read-out: Mean IC50 ± SD, MT-4 cells, HIVSQV-5 μM, p24 assay) was 548 ± 177 nM.

CC(C)CN(C[C@@H](O)[C@H](Cc1ccccc1)NC(=O)O[C@H]1CO[C@H]2OCC[C@H]21)S(=O)(=O)c1ccc(N)cc1 [DRV, darunavir] gave an IC50 (HIVDRV^RP20; [8]) of 60 ± 6 nM, an IC50 (HIVAPV-5 μM; [9]) of 43 ± 22 nM and an IC50 (HIVLPV-5 μM; [9]) of 275 ± 64 nM. It also gave an IC50 (HIVDRV^RP30; [8]) of 134 ± 43 nM, an IC50 (HIVNFV-5 μM; [9]) of 6.1 ± 0.8 nM and an IC50 (HIVIDV-5 μM; [9]) of 42 ± 1 nM. It also gave an IC50 (HIVATV-5 μM; [9]) of 26 ± 1 nM, an IC50 (HIVTPV-15 μM; [9]) of 41 ± 3 nM and an IC50 (wild-type HIV-1NL4-3; [8]) of 3.7 ± 0.7 nM. For the same compound, the IC50 (HIVDRV^RP51; [8]) was 4670 ± 1260 nM and the IC50 (HIVSQV-5 μM; [9]) was 22 ± 6 nM.

For CC(C)CN(C[C@@H](O)[C@H](Cc1cc(F)cc(F)c1)NC(=O)O[C@H]1C2CO[C@H]3OC[C@@H]1C3C2)S(=O)(=O)c1ccc(N)cc1 (stereo partly drawn) [Inhibitor 4, (3S,7 aS,8S)-Hexahydro-4H-3,5-methanofuro[2,3-b]pyran-8-yl((2S,3R)-4-((4-amino-N-isobutylphenyl)sulfonamido)-1-(3,5-difluorophenyl)-3-hydroxybutan-2-yl)carbamate], the “fold change of IC50 relative to HIV-1NL4-3” value (HIVDRV^RP20) was 4 fold, the IC50 (HIVDRV^RP20; [3]) was 24 ± 9 nM and the “fold change of IC50 relative to HIV-1NL4-3” value (HIVDRV^RP30) was 1.9 fold. The IC50 (HIVDRV^RP30; [4]) was 11 ± 13 nM, the Ki (HIV-1 protease) was 0.004 nM and the IC50 (wild-type HIV-1NL4-3; [6]) was 5.9 ± 0.4 nM. For the same compound, the “fold change of IC50 relative to HIV-1NL4-3” value (HIVDRV^RP51) was 82 fold and the IC50 (HIVDRV^RP51; [7]) was 486 ± 52 nM.
